From PMC7211202 (Investigational New Drugs, 2019)
Read-outs that look alike come from different tables or passages of the source.

How the values were obtained:
[1] = Plasma AMG 232 pharmacokinetics (HPLC-MS, non-compartmental analysis); assay type: in vivo, human; conditions: human, plasma, oral; for Tmax: read-out: tmax, median (range); for AUC(0-t): read-out: AUC24h, mean (SD); for Cmax: read-out: Cmax, mean (SD); for Vd/F: read-out: Vz/F, mean (SD)
Description: Non-compartmental analysis was performed using WinNonlin Professional software, version 6.3. Parameters were summarized descriptively.

MDM2-p53 interaction = conditions: cited from earlier work
[2] = 240 mg, Day 1, 240-mg dose expansion, Total (n = 47–67)
[3] = 240 mg, Day 1, 240-mg dose expansion, WDLPS (n = 9–10)
[4] = 240 mg, Day 1, Parts 1 and 2, 240 mg (n = 54–75)
[5] = 240 mg, Day 1, dose escalation, 240 mg (n = 7–8)
[6] = 240 mg, Day 7, 240-mg dose expansion, DDLPS (n = 6–10)
[7] = 240 mg, Day 7, 240-mg dose expansion, ER + PR+ Breast (n = 6–8)
[8] = 240 mg, Day 7, 240-mg dose expansion, ER + PR– Breast (n = 4)
[9] = 240 mg, Day 7, 240-mg dose expansion, GBM (n = 6–9)
[10] = 240 mg, Day 7, 240-mg dose expansion, Multiple Myeloma (n = 7–10)
[11] = 240 mg, Day 7, 240-mg dose expansion, Other Solid (n = 9–16)
[12] = 240 mg, Day 7, 240-mg dose expansion, Total (n = 47–67)
[13] = 240 mg, Day 7, 240-mg dose expansion, WDLPS (n = 9–10)
[14] = 240 mg, Day 7, Parts 1 and 2, 240 mg (n = 54–75)
[15] = 240 mg, Day 7, dose escalation, 240 mg (n = 7–8)
[16] = 300 mg, Day 1, dose escalation, 300 mg (n = 3–4)
[17] = 300 mg, Day 7, dose escalation, 300 mg (n = 3–4)
[18] = 360 mg, Day 1, dose escalation, 360 mg (n = 3–4)
[19] = 360 mg, Day 7, dose escalation, 360 mg (n = 3–4)
[20] = 480 mg, Day 1, dose escalation, 480 mg (n = 5–6)
[21] = 480 mg, Day 7, dose escalation, 480 mg (n = 5–6)

CC(C)[C@@H](CS(=O)(=O)C(C)C)N1C(=O)[C@@](C)(CC(=O)O)C[C@H](c2cccc(Cl)c2)[C@H]1c1ccc(Cl)cc1 [AMG 232]
Tmax ([1]; 240 mg, Day 1, 240-mg dose expansion, Other Solid (n = 9–16)): 3 h | AUC(0-t) [1, 2]: 8830 ng·h/mL | Cmax [1, 2]: 1390 ng/mL | Tmax [1, 2]: 3 h | AUC(0-t) [1, 3]: 9260 ng·h/mL | Cmax [1, 3]: 1350 ng/mL | Tmax [1, 3]: 3.1 h | AUC(0-t) [1, 4]: 8480 ng·h/mL | Cmax [1, 4]: 1350 ng/mL | Tmax [1, 4]: 3 h | AUC(0-t) [1, 5]: 5690 ng·h/mL | Cmax [1, 5]: 1030 ng/mL | Tmax [1, 5]: 2 h | AUC(0-t) [1, 6]: 10800 ng·h/mL | Cmax [1, 6]: 1050 ng/mL | Vd/F [1, 6]: 537 L | Tmax [1, 6]: 3 h | Cmax [1, 7]: 1350 ng/mL | Vd/F [1, 7]: 689 L | Tmax [1, 7]: 2.8 h | AUC(0-t) [1, 8]: 9960 ng·h/mL | Cmax [1, 8]: 1620 ng/mL | Vd/F [1, 8]: 814 L | Tmax [1, 8]: 1 h | AUC(0-t) [1, 9]: 9210 ng·h/mL | Cmax [1, 9]: 988 ng/mL | Vd/F [1, 9]: 1010 L | Tmax [1, 9]: 2.8 h | AUC(0-t) [1, 10]: 8450 ng·h/mL | Cmax [1, 10]: 1190 ng/mL | Vd/F [1, 10]: 859 L | Tmax [1, 10]: 1.1 h | AUC(0-t) [1, 11]: 17200 ng·h/mL | Cmax [1, 11]: 2200 ng/mL | Vd/F [1, 11]: 353 L | Tmax [1, 11]: 2.9 h | AUC(0-t) [1, 12]: 12300 ng·h/mL | Cmax [1, 12]: 1420 ng/mL | Vd/F [1, 12]: 627 L | Tmax [1, 12]: 2.8 h | AUC(0-t) [1, 13]: 15700 ng·h/mL | Cmax [1, 13]: 1230 ng/mL | Vd/F [1, 13]: 389 L | Tmax [1, 13]: 3 h | AUC(0-t) [1, 14]: 12100 ng·h/mL | Cmax [1, 14]: 1440 ng/mL | Vd/F [1, 14]: 613 L | Tmax [1, 14]: 2.9 h | AUC(0-t) [1, 15]: 10600 ng·h/mL | Cmax [1, 15]: 1560 ng/mL | Vd/F [1, 15]: 523 L | Tmax [1, 15]: 3 h | AUC(0-t) [1, 16]: 14700 ng·h/mL | Cmax [1, 16]: 1740 ng/mL | Tmax [1, 16]: 3 h | AUC(0-t) [1, 17]: 25000 ng·h/mL | Cmax [1, 17]: 2090 ng/mL | Vd/F [1, 17]: 762 L | Tmax [1, 17]: 3.1 h | AUC(0-t) [1, 18]: 15800 ng·h/mL | Cmax [1, 18]: 2380 ng/mL | Tmax [1, 18]: 2 h | AUC(0-t) [1, 19]: 15500 ng·h/mL | Cmax [1, 19]: 2050 ng/mL | Vd/F [1, 19]: 423 L | Tmax [1, 19]: 2 h | AUC(0-t) [1, 20]: 18800 ng·h/mL | Cmax [1, 20]: 2630 ng/mL | Tmax [1, 20]: 3 h | AUC(0-t) [1, 21]: 18400 ng·h/mL | Cmax [1, 21]: 1750 ng/mL | Vd/F [1, 21]: 585 L | Tmax [1, 21]: 3.1 h | Vd/F ([1]; Day 7, Parts 1 and 2, All Doses (n = 76–97)): 615 L | affinity of blocking the MDM2-p53 interaction (MDM2-p53 interaction): picomolar
